Values after ≈ are worked out from the molar mass of the structure shown.
Legend:
U251 cells = assay: MTS cytotoxicity assay, U251 cells; assay type: cell-based; conditions: 72 h
Experimental: (§1) For CellTiter 96® Aqueous One Solution Cell Proliferation Assay (MTS) (Promega, Madison, WI, USA), cells were seeded at 5 × 10^3 per well in 96-well plates in quadruplicate together a control with no cells to evaluate the background. After 24 h, the culture medium was removed, and fresh medium containing increasing concentrations of chemical compounds was added to cells. […] DMSO was the vehicle used for dilution of the compounds, and its final concentration on cells was less than 0.2%. Medium-only containing wells were included as controls. Cells were incubated with compounds at different concentrations for 72 h, then, 20 µL of CellTiter 96® AQueous One Solution Reagent was added into each well. After 3 h at 37 °C in a humidified, 5% CO2 atmosphere, the absorbance at 492 nm was recorded using an EZREAD400 (Biochrom, Cambridge, United Kingdom) plate reader. The average 490 nm absorbance from the “no cell” control wells was subtracted from all other values to yield background-corrected absorbance. Dose–response curves and CC50 values have been calculated by plotting the absorbance data as a function of inhibitor concentrations and fitting the data by least-squares nonlinear regression, according to the method of Marquardt–Levenberg, with the computer program GraphPad Prism 6.0.
(§2) Cells were incubated with a scalar concentration of DDX3X inhibitors, and after 72 h of treatment, cell viability was assessed by cytotoxicity assay. […] Compounds 4, 6, and BA103 were also evaluated against BJ primary fibroblasts; compound 4 has a cytotoxicity value of 84.7 μM; on the contrary, compounds 6 and BA103 were not toxic up to 200 μM concentration. This further excluded a possible nonspecific cytotoxic effect. […] Due to its interesting profile, compound BA103 was further tested against additional pulmonary (A549), breast (MDA-MB-231), colorectal (HCT-116), osteosarcoma (U2OS), rhabdomyosarcoma (RD18), GBM (DBTRG, U87, and U251) and medulloblastoma (DAOY) cancer cell lines.
(§3) Figure 5 Cytotoxicity of selected compounds. Compounds were assayed on DU-145, PC3, HepG2, Huh-7, HN6, U251, and U87 cell lines. The concentration of the compound, which reduced the number of viable cells by 50% (CC50), was determined by dose–response curve, and the mean CC50 value for each cell line was calculated by triplicate assays (raw data from U87 and U251 cells with dose–response curves used for the calculation of CC50 in Table S1 and Figure S2).
(§4) Table S1: Raw data of optical absorbance at 490 nm from MTS assay in U87 and U251 cells. Tables contain
(§5) means with SD of at least 5 different values that were used for preparation of figure 5.

U87 cells = assay: MTS cytotoxicity assay, U87 cells; assay type: cell-based; conditions: for mean absorbance at 490 nm (MTS): 72 h
Experimental: as §1, §2, §3, §4, §5

Water solubility assay = assay type: physicochemical; conditions: 27 °C, thermodynamic from solid, read-out: LogS (aqueous solubility) (converted)
Experimental: Preliminary in vitro ADME analysis was performed to early evaluate the pharmacokinetic (PK) profile of our compounds (Figure 8). Aqueous solubility was calculated by LC-MS-MS analysis. An aliquot of 1 mg of compound was stirred for 24 h at 27 °C in 1 mL of water. The mixture was filtered, and the quantity of solubilized compound was determined. Passive permeability was determined using parallel artificial membrane permeability assay (PAMPA). Microsomal metabolic stability was determined by LC-UV-MS analysis by incubating compounds with human liver microsomes at 37 °C for 60 min (for details, see the Supporting Information). […]
Each solid compound (1 mg) was added to 1 mL of water. The samples were shaked in a shaker bath at room temperature for 24-36 h. The suspensions were filtered through a 0.45 μm nylon filter (Acrodisc), and the solubilized compound determined by LC-MS-MS assay. For each compound the determination was […]
For the quantification was used an LC-MS system consisted of a Varian apparatus (Varian Inc) including a vacuum solvent degassing unit, two pumps (212-LC), a Triple Quadrupole MSD (Mod. 320-LC) mass spectrometer with ES interface and Varian MS Workstation System Control Vers. 6.9 software.
Chromatographic separation was obtained using a Pursuit C18 column (50 x 2.0 mm) (Varian) with 3 μm particle size and gradient elution: eluent A being ACN and eluent B consisting of water. […] The flow rate was 0.2 mL min-1 and injection volume was 5 μL. The instrument operated in positive mode and parameters were: detector 1850 V, drying gas pressure 25.0 psi, desolvation temperature 300.0 °C, nebulizing gas 40.0 psi, needle 5000 V and shield 600 V. Nitrogen was used as nebulizer gas and drying gas. […]
Chromatographic analysis was performed with an Agilent 1100 LC/MSD VL system (G1946C) (Agilent Technologies, Palo Alto, CA) constituted by a vacuum solvent degassing unit, a binary high-pressure gradient pump, an 1100 series UV detector, and an 1100 MSD model VL benchtop mass spectrometer.
Chromatographic separation was obtained using a Varian Polaris C18-A column (150-4.6 mm, 5 μm particle size) and gradient elution: eluent A being ACN and eluent B consisting of water. The analysis started with 2% […]
flow rate was 0.8 mL min-1 and injection volume was 20 μL.
The Agilent 1100 series mass spectra detection (MSD) single-quadrupole instrument was equipped with the orthogonal spray API-ES (Agilent Technologies, Palo Alto, CA). Nitrogen was used as nebulizing and drying gas. The pressure of the nebulizing gas, the flow of the drying gas, the capillary voltage, the fragmentor voltage, and the vaporization temperature were set at 40 psi, 9 L/min, 3000 V, 70 V, and 350 °C, respectively. […]
Spectra were acquired over the scan range m/z 100-1500 using a step size of 0.1 u. […]

BJ primary fibroblasts = assay: Cytotoxicity against BJ primary fibroblasts; assay type: cell-based
Experimental: For CellTiter 96® Aqueous One Solution Cell Proliferation Assay (MTS) (Promega, Madison, WI, USA), cells were seeded at 5 × 10^3 per well in 96-well plates in quadruplicate together a control with no cells to evaluate the background. After 24 h, the culture medium was removed, and fresh medium containing increasing concentrations of chemical compounds was added to cells. The fixed final concentrations were 0.1 μM, 1 μM, 10 μM, and 100 μM. DMSO was the vehicle used for dilution of the compounds, and its final concentration on cells was less than 0.2%. Medium-only containing wells were included as controls. Cells were incubated with compounds at different concentrations for 72 h, then, 20 µL of CellTiter 96® AQueous One Solution Reagent was added into each well. After 3 h at 37 °C in a humidified, 5% CO2 atmosphere, the absorbance at 492 nm was recorded using an EZREAD400 (Biochrom, Cambridge, United Kingdom) plate reader. The average 490 nm absorbance from the “no cell” control wells was subtracted from all other values to yield background-corrected absorbance. Dose–response curves and CC50 values have been calculated by plotting the absorbance data as a function of inhibitor concentrations and fitting the data by least-squares nonlinear regression, according to the method of Marquardt–Levenberg, with the computer program GraphPad Prism 6.0.
as §2

CCCCc1cn(-c2ccc(NC(=O)Nc3ccccc3C)cc2)nn1 [Compound 1, reference compound]
mean absorbance at 490 nm (MTS) (U251 cells; U251, 0,01 uM): 2,020 | mean absorbance at 490 nm (MTS) (U251 cells; U251, 0,1 uM): 1,998 | mean absorbance at 490 nm (MTS) (U251 cells; U251, 1 uM): 1,459 | mean absorbance at 490 nm (MTS) (U251 cells; U251, 10 uM): 1,107 | mean absorbance at 490 nm (MTS) (U251 cells; U251, 100 uM): 0,474 | mean absorbance at 490 nm (MTS) (U87 cells; U87, 0,01 uM): 2,027 | mean absorbance at 490 nm (MTS) (U87 cells; U87, 0,1 uM): 2,018 | mean absorbance at 490 nm (MTS) (U87 cells; U87, 1 uM): 2,000 | mean absorbance at 490 nm (MTS) (U87 cells; U87, 10 uM): 1,584 | mean absorbance at 490 nm (MTS) (U87 cells; U87, 100 uM): 0,465

CC(C)CCc1cn(-c2ccc(NC(=O)Nc3cccc4cnccc34)cn2)nn1 [Compound 10, 1-(6-(4-Isopentyl-1H-1,2,3-triazol-1-yl)pyridin-3-yl)-3-(isoquinolin-5-yl)urea]
solubility at 24 h (Water solubility assay): < 0.0363 µM | mean absorbance at 490 nm (MTS) (U251 cells; U251, 0,01 uM): 1,904 | mean absorbance at 490 nm (MTS) (U251 cells; U251, 0,1 uM): 2,003 | mean absorbance at 490 nm (MTS) (U251 cells; U251, 1 uM): 1,581 | mean absorbance at 490 nm (MTS) (U251 cells; U251, 10 uM): 1,667 | mean absorbance at 490 nm (MTS) (U251 cells; U251, 100 uM): 0,809 | mean absorbance at 490 nm (MTS) (U87 cells; U87, 0,01 uM): 1,863 | mean absorbance at 490 nm (MTS) (U87 cells; U87, 0,1 uM): 1,379 | mean absorbance at 490 nm (MTS) (U87 cells; U87, 1 uM): 1,165 | mean absorbance at 490 nm (MTS) (U87 cells; U87, 10 uM): 0,858 | mean absorbance at 490 nm (MTS) (U87 cells; U87, 100 uM): 0,467

CCCCc1nnc(-c2ccc(NC(=O)Nc3ccccc3C(F)(F)F)cc2)o1 [Compound 3, 1-(4-(5-Butyl-1,3,4-oxadiazol-2-yl)phenyl)-3-(2-(trifluoromethyl)phenyl)urea]
solubility at 24 h (Water solubility assay): < 0.0251 µM | mean absorbance at 490 nm (MTS) (U251 cells; U251, 0,01 uM): 1,298 | mean absorbance at 490 nm (MTS) (U251 cells; U251, 0,1 uM): 1,025 | mean absorbance at 490 nm (MTS) (U251 cells; U251, 1 uM): 1,098 | mean absorbance at 490 nm (MTS) (U251 cells; U251, 10 uM): 0,593 | mean absorbance at 490 nm (MTS) (U251 cells; U251, 100 uM): 0,217 | mean absorbance at 490 nm (MTS) (U87 cells; U87, 0,01 uM): 1,350 | mean absorbance at 490 nm (MTS) (U87 cells; U87, 0,1 uM): 1,140 | mean absorbance at 490 nm (MTS) (U87 cells; U87, 1 uM): 1,178 | mean absorbance at 490 nm (MTS) (U87 cells; U87, 10 uM): 1,065 | mean absorbance at 490 nm (MTS) (U87 cells; U87, 100 uM): 0,568

CCCCc1cn(-c2ccc(NC(=O)Nc3ccccc3C(F)(F)F)cc2)nn1 [BA103, 1-(4-(4-Butyl-1H-1,2,3-triazol-1-yl)phenyl)-3-(2-(trifluoromethyl)phenyl)urea]
mean absorbance at 490 nm (MTS) (U251 cells; U251, 0,01 uM): 2,166 | mean absorbance at 490 nm (MTS) (U251 cells; U251, 0,1 uM): 2,070 | mean absorbance at 490 nm (MTS) (U251 cells; U251, 1 uM): 1,364 | mean absorbance at 490 nm (MTS) (U251 cells; U251, 10 uM): 0,842 | mean absorbance at 490 nm (MTS) (U251 cells; U251, 100 uM): 0,604 | cytotoxicity value (BJ primary fibroblasts): > 200 µM | mean absorbance at 490 nm (MTS) (U87 cells; U87, 0,01 uM): 1,598 | mean absorbance at 490 nm (MTS) (U87 cells; U87, 0,1 uM): 1,132 | mean absorbance at 490 nm (MTS) (U87 cells; U87, 1 uM): 0,959 | mean absorbance at 490 nm (MTS) (U87 cells; U87, 10 uM): 0,804 | mean absorbance at 490 nm (MTS) (U87 cells; U87, 100 uM): 0,566 | CC50 (U87 cells; U87, 72 h): low micromolar range

CCCCc1nnc(-c2ccc(NC(=O)Nc3ccccc3C(F)(F)F)cc2)[nH]1 [Compound 4, 1-(4-(5-Butyl-4H-1,2,4-triazol-3-yl)phenyl)-3-(2-(trifluoromethyl)phenyl)urea]
solubility at 24 h (Water solubility assay): 0.275 µM (≈ 0.111 µg/mL) | mean absorbance at 490 nm (MTS) (U251 cells; U251, 0,01 uM): 1,499 | mean absorbance at 490 nm (MTS) (U251 cells; U251, 0,1 uM): 1,513 | mean absorbance at 490 nm (MTS) (U251 cells; U251, 1 uM): 1,627 | mean absorbance at 490 nm (MTS) (U251 cells; U251, 10 uM): 1,482 | mean absorbance at 490 nm (MTS) (U251 cells; U251, 100 uM): 0,502 | cytotoxicity value (BJ primary fibroblasts): 84.7 µM | mean absorbance at 490 nm (MTS) (U87 cells; U87, 0,01 uM): 1,906 | mean absorbance at 490 nm (MTS) (U87 cells; U87, 0,1 uM): 1,293 | mean absorbance at 490 nm (MTS) (U87 cells; U87, 1 uM): 0,941 | mean absorbance at 490 nm (MTS) (U87 cells; U87, 10 uM): 0,784 | mean absorbance at 490 nm (MTS) (U87 cells; U87, 100 uM): 0,162

CCCCn1nnc(-c2ccc(NC(=O)Nc3ccccc3C(F)(F)F)cc2)n1 [Compound 6, 1-(4-(2-Butyl-2H-tetrazol-5-yl)phenyl)-3-(2-(trifluoromethyl)phenyl)urea]
solubility at 24 h (Water solubility assay): < 0.0251 µM | mean absorbance at 490 nm (MTS) (U251 cells; U251, 0,01 uM): 1,431 | mean absorbance at 490 nm (MTS) (U251 cells; U251, 0,1 uM): 1,763 | mean absorbance at 490 nm (MTS) (U251 cells; U251, 1 uM): 2,172 | mean absorbance at 490 nm (MTS) (U251 cells; U251, 10 uM): 1,348 | mean absorbance at 490 nm (MTS) (U251 cells; U251, 100 uM): 0,361 | cytotoxicity value (BJ primary fibroblasts): > 200 µM | mean absorbance at 490 nm (MTS) (U87 cells; U87, 0,01 uM): 1,944 | mean absorbance at 490 nm (MTS) (U87 cells; U87, 0,1 uM): 1,964 | mean absorbance at 490 nm (MTS) (U87 cells; U87, 1 uM): 2,007 | mean absorbance at 490 nm (MTS) (U87 cells; U87, 10 uM): 1,387 | mean absorbance at 490 nm (MTS) (U87 cells; U87, 100 uM): 0,540

Reference: PMC8582824, “Targeting DDX3X Helicase Activity with BA103 Shows Promising Therapeutic Effects in Preclinical Glioblastoma Models” (Cancers, 2021)
